Laboratory results from BindingDB's records for patent US12398120 (Bayer Aktiengesellschaft, 2025).

The molecules below were run against A disintegrin and metalloproteinase with thrombospondin motifs 7 (Homo sapiens, UniProt Q9UKP4) (assay: Assay for ADAMTS-7 Enzymatic Activity and Testing of Inhibitory Compounds).
Procedure: An additional carboxyl glutamic acid was added after the QXL520 quencher to increase substrate solubility. […] IC50 values were calculated from percentage of inhibition of ADAMTS-7 activity as a function of test compound concentration.

Chain of A disintegrin and metalloproteinase with thrombospondin motifs 7 (Q9UKP4 whole entry): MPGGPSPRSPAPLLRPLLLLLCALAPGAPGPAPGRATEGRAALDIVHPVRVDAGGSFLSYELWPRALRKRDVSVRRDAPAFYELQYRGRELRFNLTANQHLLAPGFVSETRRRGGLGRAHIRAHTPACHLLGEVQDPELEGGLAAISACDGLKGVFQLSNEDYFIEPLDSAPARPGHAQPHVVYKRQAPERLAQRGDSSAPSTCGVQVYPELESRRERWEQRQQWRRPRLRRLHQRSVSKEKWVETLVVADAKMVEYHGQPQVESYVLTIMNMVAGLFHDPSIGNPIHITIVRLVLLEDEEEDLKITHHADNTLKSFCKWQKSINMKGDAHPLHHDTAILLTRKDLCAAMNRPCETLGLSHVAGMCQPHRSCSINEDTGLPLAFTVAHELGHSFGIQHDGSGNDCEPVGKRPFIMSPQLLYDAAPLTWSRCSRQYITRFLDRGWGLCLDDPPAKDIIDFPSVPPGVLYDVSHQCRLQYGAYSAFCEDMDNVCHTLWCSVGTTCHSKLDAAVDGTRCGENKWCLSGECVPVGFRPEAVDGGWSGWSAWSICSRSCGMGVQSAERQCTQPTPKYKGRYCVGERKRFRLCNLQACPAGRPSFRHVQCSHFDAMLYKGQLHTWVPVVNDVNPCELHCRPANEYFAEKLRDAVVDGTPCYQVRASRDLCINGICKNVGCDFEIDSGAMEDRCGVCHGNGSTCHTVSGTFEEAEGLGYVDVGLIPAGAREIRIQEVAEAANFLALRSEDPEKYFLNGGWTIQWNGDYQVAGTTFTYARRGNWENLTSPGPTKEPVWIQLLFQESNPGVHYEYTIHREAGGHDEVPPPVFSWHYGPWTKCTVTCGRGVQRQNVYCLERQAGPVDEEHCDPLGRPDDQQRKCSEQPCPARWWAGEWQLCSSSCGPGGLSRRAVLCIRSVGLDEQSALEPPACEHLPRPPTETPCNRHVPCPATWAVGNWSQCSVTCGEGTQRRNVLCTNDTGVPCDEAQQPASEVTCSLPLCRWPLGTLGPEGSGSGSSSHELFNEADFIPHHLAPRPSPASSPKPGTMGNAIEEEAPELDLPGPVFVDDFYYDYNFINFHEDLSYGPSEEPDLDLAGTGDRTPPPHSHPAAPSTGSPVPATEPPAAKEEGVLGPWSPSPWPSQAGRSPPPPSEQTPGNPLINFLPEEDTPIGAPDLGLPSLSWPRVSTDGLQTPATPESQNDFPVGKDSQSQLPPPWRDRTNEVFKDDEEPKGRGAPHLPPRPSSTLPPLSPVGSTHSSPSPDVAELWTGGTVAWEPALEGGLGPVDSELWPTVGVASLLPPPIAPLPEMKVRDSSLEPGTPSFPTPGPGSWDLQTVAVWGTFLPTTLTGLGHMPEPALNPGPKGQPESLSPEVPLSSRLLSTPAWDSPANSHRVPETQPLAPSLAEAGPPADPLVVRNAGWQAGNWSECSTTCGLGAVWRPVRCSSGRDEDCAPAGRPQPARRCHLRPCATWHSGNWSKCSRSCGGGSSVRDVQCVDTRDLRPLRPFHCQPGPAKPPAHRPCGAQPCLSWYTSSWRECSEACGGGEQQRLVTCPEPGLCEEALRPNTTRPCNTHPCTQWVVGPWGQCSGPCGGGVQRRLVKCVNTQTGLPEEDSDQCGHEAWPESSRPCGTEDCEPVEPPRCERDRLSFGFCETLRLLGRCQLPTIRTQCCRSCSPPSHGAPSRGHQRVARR

SMILES	IC50
CC(C)C1(CNC(=O)c2ccc(F)c(F)c2-c2ccc(C(F)(F)F)cc2)NC(=O)NC1=O (single isomer, unassigned) [US12398120, Example 214]	8.97 nM
Cc1ccc(-c2cc(F)ccc2C(=O)NC[C@@]2(C3CC3)NC(=O)NC2=O)cc1 [US12398120, Example 100]	45 nM
Cc1ccc(-c2cc(F)ccc2C(=O)NCC2(c3nccn3C)NC(=O)NC2=O)cc1 (single isomer, unassigned) [US12398120, Example 147]	4.2 nM

What follows are molecules tested against T1, A disintegrin and metalloproteinase with thrombospondin motifs 4 (Homo sapiens, UniProt O75173) (assay: not given).
T1 sequence (O75173 whole entry): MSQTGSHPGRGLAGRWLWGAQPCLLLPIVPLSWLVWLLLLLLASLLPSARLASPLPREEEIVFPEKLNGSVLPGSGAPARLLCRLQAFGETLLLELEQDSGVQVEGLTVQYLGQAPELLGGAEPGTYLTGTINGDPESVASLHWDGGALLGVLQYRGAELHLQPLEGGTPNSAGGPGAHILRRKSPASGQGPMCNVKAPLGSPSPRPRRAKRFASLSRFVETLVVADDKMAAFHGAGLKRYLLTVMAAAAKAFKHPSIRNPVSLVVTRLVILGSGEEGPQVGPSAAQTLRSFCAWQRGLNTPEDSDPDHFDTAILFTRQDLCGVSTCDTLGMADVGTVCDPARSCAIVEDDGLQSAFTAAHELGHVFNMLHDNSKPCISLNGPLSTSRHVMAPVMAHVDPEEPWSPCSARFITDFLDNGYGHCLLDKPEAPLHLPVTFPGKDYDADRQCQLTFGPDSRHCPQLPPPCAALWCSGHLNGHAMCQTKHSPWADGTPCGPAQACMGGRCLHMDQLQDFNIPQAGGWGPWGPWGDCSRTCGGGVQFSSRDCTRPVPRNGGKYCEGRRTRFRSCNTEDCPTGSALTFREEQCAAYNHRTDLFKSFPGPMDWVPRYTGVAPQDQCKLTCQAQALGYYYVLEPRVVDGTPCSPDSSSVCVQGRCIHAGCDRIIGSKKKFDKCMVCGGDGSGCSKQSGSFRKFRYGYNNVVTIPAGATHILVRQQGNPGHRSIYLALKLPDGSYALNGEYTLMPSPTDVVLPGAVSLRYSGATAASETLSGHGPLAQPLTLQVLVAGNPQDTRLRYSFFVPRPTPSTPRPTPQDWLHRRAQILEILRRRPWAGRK

SMILES	IC50
CC(C)C1(CNC(=O)c2ccc(F)c(F)c2-c2ccc(C(F)(F)F)cc2)NC(=O)NC1=O (single isomer, unassigned) [US12398120, Example 214]	37500 nM
Cc1ccc(-c2cc(F)ccc2C(=O)NC[C@@]2(C3CC3)NC(=O)NC2=O)cc1 [US12398120, Example 100]	8100 nM
Cc1ccc(-c2cc(F)ccc2C(=O)NCC2(c3nccn3C)NC(=O)NC2=O)cc1 (single isomer, unassigned) [US12398120, Example 147]	1700 nM
